As a reminder, the EC50 is the concentration that produces a half-maximal response.

Bounds are passed on as bounds.

We go through three compounds from patent EP4682141A1, “TRICYCLIC COMPOUND” (ONO Pharmaceutical Co., Ltd., priority 2023, dated 2024).

The target in one experiment is T1, EP1 (Homo sapiens, UniProt P34995).
T1 construct: expressed in transfected cells; host or cells: CHO (EP1-CHO)
T1 sequence (P34995 1-402): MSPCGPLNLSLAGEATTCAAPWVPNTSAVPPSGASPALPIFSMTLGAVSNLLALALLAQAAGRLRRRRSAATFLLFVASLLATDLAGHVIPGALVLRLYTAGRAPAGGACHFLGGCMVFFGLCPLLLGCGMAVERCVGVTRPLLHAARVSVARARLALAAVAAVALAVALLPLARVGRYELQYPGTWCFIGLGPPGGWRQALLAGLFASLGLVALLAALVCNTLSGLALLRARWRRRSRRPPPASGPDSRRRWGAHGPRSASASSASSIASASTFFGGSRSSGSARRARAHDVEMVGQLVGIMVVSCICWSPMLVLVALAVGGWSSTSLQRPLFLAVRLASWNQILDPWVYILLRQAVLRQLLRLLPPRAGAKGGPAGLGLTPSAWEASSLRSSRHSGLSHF
Description: agonist activity on human EP1 receptor (intracellular calcium concentration, EP1-CHO cells). In kind it is cell-based. The procedure:
(§1) Using CHO cells (EP1-CHO, EP2-CHO, EP3-Chem1, EP4-CHO and IP-CHO) on which various human prostanoid receptors were forcibly expressed, the agonist activity of the test compound on the various prostanoid receptors was examined using the intracellular calcium concentration for EP1 and EP3, and the intracellular cyclic AMP (hereinafter, abbreviated as cAMP) production amount for EP2, EP4 and IP as indices.
(§2) The test compound and control substances (PGE2 and iloprost) were dissolved in dimethyl sulfoxide (DMSO) to prepare a 10 mmol/L solution. The prepared 10 mmol/L solution was thawed at the time of use, serially diluted using DMSO, and diluted with a buffer solution 1 for measurement (Hank's balanced salt solution (Thermofischer scientific) containing 1 w/v% human serum albumin (Sigma), 2 µmol/L indomethacin (Sigma), 2.5 mmol/L probenecid, and 10 mmol/L HEPES-NaOH (pH7.4)) or a buffer solution 2 for measurement (D-PBS (Nacalai Tesque) containing 0.1 w/v% human serum albumin, 2 µmol/L diclofenac (Sigma), and 1 mmol/L 3-isobutyl-1-methylxanthine (Sigma)) to perform experiments.
The intracellular calcium concentration was measured using Calcium 6 Assay Kit (Molecular Devices). On the day before the measurement, EP1-CHO and EP3-Chem 1 were obtained by thawing the frozen cells, suspended using Ham's F-12 medium (Thermofischer scientific) containing inactivated (56°C, 30 min) 9.8 vol% FBS (Thermofischer scientific) and penicillin-streptomycin (Nacalai Tesque), seeded into a 96 well UV plate to 1.0×10^5 cells per well, and static cultured at 37°C in the presence of 5%CO2. On the day of the measurement, the medium was removed, followed by addition of 120 µL of the Calcium indication solution dissolved in the buffer solution 1 for measurement and incubation at room temperature under light-shielding for about 1 hour. After 1 hour incubation, the 96 well UV plates were set in a fluorescence spectrophotometer (FDSS-7000, Hamamatsu Photonics) to measure the intracellular calcium concentration. Thirty microliters of the buffer solution 1 for measurement containing various concentrations of agonists were added, and the mixture was reacted. The intracellular calcium concentration was measured by irradiating the cells with 480 nm excitation light and measuring the fluorescence intensity at 540 nm.
In general terms: A change in cytosolic calcium serves as a functional read-out for many receptors and channels.

The next experiment deals with diabetes model rat. Description: inhibitory effect on the amount of albumin excreted in urine in diabetes model rat. Format: in vivo, SDT Fatty rats. The conditions noted are these: urine collected for 24 hours, urine albumin/urine creatinine ratio. The method, then:
Male SDT Fatty rats aged 6 weeks (CLEA Japan) were purchased and preliminarily bred for 1 week or more. Experiments were performed at 8 to 16 weeks of age. The animals were fed ad libitum with solid feed CRF-1 (Oriental Yeast) and watered ad libitum.
Animals were housed in metabolic cages 2 days before test substance administration, and urine was collected for 24 hours. On the day before administration of the test substance, urine albumin and urine creatinine were measured, and grouping was performed by a stratification randomization method based on the urine albumin/urine creatinine ratio (ACR) and the average value of body weights for each group.
The compounds (test substances) of Examples 9-5, 10, 11, 12, 25-7 and 32, and water for injection (Otsuka Pharmaceutical) as a vehicle were orally administered once at 5 mL/kg. The administration dose is described in Table 3.
For evaluation of the amount of albumin excreted in urine of each animal, a urine albumin/urine creatinine ratio (ACR) was measured. After administration of the test substance, the animals were housed in metabolic cages, and urine was collected for 24 hours. Each concentration of urine albumin and urine creatinine was measured using an automatic analyzer 7180 (Hitachi High-Tech), and ACR was calculated by dividing the urine albumin concentration by the urine creatinine concentration.

Experiment [1] relates to rat 5/6 kidney-removed model. In words: in vivo drug efficacy on renal damage in rat 5/6 kidney-removed model. More on the design: species or system Jcl: Wistar (Wistar) rats. The note with it: after 8 weeks from the start of administration. From the text:
The obtained urine sample was centrifuged, and the supernatant was subjected to measurement.

For experiment [2], the system named is diabetic renal disease model rat. Description: in vivo drug efficacy in diabetic renal disease model rat (single kidney removal, saline). More on the design: species or system SDT.Cg-Leprfa/JttJcl (SDT-fatty rat). The conditions noted are these: 8 weeks after the start of administration. The method, then: A diabetic renal disease model was created by extracting the unilateral kidneys of male SDT.Cg-Leprfa/JttJcl (SDT-fatty/Jcl, CLEA Japan) rats, a type 2 diabetes model, and then giving saline. The in vivo drug efficacy of the present compound on diabetic renal disease was evaluated in this model.
Male SDT.Cg-Leprfa/JttJcl (SDT-fatty rat) aged 4 weeks was purchased from CLEA Japan, and subjected to experiments. The animals were fed ad libitum with Purina5008 (Japan SLC) from the time of arrival, and watered ad libitum. Water was given from the arrival and until 1 week from single kidney removal, and a 0.2 w/v% NaCl solution was given 1 week after single kidney removal.
After acclimation breeding, the body weight was measured, and buprenorphine was subcutaneously administered at a dose of 0.01 mg/kg under inhalation anesthesia with isoflurane (Mayran). After removing hair from the right abdomen of the rat, the right abdomen was disinfected with ethanol and isodine for disinfection and incised to expose the right kidney. The renal artery and vein was ligated with a suture to stop the blood flow, the right kidney was totally removed, and the incision was sutured. The following day, analgesic buprenorphine was administered subcutaneously at a dose of 0.01 mg/kg.
Grouping was performed 3 weeks after single kidney removal. The mice were divided into groups so that the average of the above parameters was almost equal between the groups on the basis of body weight, serum urea nitrogen (BUN), serum creatinine (S-CRE), serum total cholesterol (T-CHO), blood glucose level (GLU), neutral fat (TG), urinary protein (U-TP), urinary albumin (U-ALB), and creatinine clearance (CCr).
All of the compounds of Examples 25-7, 10, 11 and 12 were orally administered once a day for 8 weeks in combination with losartan (30 mg/kg), a renin angiotensin system inhibitor, and canagliflozin (10 mg/kg), a glucose co-transporter inhibitor. The compounds of Examples 25-7, 10, 11 and 12, and losartan were each dissolved in water for injection (Otsuka Pharmaceutical), and canagliflozin was suspended in a 0.5% methyl cellulose solution (Fujifilm Wako Pure Chemical Corporation) to prepare an administration solution. In the Control-1 group, water for injection which is a vehicle of losartan or the compound of Examples 25-7, 10, 11 or 12 was orally administered at 5 mL/kg, and a 0.5% methylcellulose solution which is a vehicle of canagliflozin was orally administered at 2.5 mL/kg once a day for 8 weeks. In the Control-2 group, losartan (30 mg/kg) dissolved in water for injection was orally administered at an administration volume of 2.5 mL/kg, canagliflozin (10 mg/kg) suspended in a 0.5% methyl cellulose solution was orally administered at an administration volume of 2.5 mL/kg, and water for injection which is a vehicle of the compounds of Examples 25-7, 10, 11 and 12 was orally administered at an administration volume of 2.5 mL/kg once a day for 8 weeks. The administration dose is described in Table 8.
Blood was collected by puncturing the tail vein of the rat with an injection needle. Blood was collected in a tube for serum separation (BD Microtainer) and centrifuged to obtain serum. Urine was collected for 24 hours in a metabolic cage for rat under conditions in which a solid feed and water can be freely taken. The obtained urine sample was centrifuged, and the supernatant was subjected to measurement. The concentrations of BUN, S-CRE, T-CHO, TG, U-ALB, U-TP, GLU and U-CRE were measured by an automatic analyzer Hitachi 7180 (Hitachi High-Tech).

The next experiment has as its target T2, EP3 receptor (Homo sapiens, UniProt P43115).
T2 construct: expressed in transfected cells; host or cells: EP3-Chem1
T2 sequence (P43115 1-390): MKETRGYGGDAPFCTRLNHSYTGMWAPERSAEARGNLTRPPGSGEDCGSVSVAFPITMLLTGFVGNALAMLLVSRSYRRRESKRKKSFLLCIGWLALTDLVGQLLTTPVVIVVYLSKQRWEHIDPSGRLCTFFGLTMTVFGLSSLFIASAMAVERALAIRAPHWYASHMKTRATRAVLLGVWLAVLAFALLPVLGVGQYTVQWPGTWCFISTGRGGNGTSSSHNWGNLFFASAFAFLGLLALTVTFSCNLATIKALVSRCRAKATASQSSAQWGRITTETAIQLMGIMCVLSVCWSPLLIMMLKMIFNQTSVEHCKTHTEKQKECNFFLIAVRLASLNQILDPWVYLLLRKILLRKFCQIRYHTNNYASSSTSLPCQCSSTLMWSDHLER
In words: agonist activity on human EP3 receptor (intracellular calcium concentration, EP3-Chem1 cells). Format: cell-based. The conditions noted are these: agonist activity on the EP3 receptor. The procedure: as §1, §2

The target of another experiment is T3, EP2 (Homo sapiens, UniProt P43116).
T3 construct: expressed in transfected cells; host or cells: CHO (EP2-CHO)
T3 sequence (P43116 whole entry): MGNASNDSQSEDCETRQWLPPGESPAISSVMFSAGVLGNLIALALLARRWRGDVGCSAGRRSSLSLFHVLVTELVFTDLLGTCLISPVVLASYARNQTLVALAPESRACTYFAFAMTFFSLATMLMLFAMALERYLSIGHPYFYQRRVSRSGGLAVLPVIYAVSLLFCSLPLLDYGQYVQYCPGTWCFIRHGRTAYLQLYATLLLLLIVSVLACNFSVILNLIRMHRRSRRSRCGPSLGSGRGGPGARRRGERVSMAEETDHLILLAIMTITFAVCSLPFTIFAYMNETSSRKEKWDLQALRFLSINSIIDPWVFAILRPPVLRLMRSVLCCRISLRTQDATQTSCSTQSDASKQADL
In words: agonist activity on human EP2 receptor (cAMP production, EP2-CHO cells). In kind it is cell-based. The procedure:
as §1
(§3) The test compound and control substances (PGE2 and iloprost) were dissolved in dimethyl sulfoxide (DMSO) to prepare a 10 mmol/L solution. […]
(§4) On the day of the measurement, EP2-CHO, EP4-CHO, and IP-CHO were obtained by thawing frozen cells. […] The cAMP concentration was measured using a cAMP HTRF HiRange kit (CIS bio International). […] After incubation for 1 hour, time-resolved fluorescence at 620 nm and 660 nm when excited at 340 nm was measured using Synergy Neo (Bioteck), and the ratio (TRF ratio) was determined to calculate the cAMP concentration from the calibration curve.

The target in a further experiment is T4, EP4 (Homo sapiens, UniProt P35408).
T4 construct: expressed in transfected cells; host or cells: CHO (EP4-CHO)
T4 sequence (P35408 whole entry): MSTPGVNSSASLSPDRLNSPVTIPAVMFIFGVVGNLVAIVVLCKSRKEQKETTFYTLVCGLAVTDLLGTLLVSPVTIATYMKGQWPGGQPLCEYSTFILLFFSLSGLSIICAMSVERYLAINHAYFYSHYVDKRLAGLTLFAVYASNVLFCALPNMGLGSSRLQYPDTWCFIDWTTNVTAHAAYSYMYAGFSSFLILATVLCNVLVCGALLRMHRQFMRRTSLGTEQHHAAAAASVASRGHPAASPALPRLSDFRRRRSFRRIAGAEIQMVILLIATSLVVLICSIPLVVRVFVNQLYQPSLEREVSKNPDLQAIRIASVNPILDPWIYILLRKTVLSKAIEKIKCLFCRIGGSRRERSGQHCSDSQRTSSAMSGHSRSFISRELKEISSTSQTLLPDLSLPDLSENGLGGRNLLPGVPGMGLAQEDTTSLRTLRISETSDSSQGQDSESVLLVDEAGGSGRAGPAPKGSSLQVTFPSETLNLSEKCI
In words: agonist activity on human EP4 receptor (cAMP production, EP4-CHO cells). In kind it is cell-based. The method, then: as §1, §3, §4
Background: Changes in cAMP serve as a functional read-out for many G protein-coupled receptors.

For a further experiment, the target named is T5, IP (Homo sapiens, UniProt P43119).
T5 construct: expressed in transfected cells; host or cells: CHO (IP-CHO)
T5 sequence (P43119 whole entry): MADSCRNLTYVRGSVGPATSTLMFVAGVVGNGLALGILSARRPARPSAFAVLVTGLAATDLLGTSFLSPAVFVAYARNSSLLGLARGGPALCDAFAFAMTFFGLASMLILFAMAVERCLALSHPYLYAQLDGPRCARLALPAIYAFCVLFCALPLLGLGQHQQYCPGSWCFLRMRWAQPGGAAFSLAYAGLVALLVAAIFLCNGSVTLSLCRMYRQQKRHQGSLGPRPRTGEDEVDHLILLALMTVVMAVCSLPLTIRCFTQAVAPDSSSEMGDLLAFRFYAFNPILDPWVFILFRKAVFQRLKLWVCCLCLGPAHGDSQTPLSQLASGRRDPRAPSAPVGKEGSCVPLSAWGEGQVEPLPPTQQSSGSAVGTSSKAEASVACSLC
Description: agonist activity on human IP receptor (cAMP production, IP-CHO cells). In kind it is cell-based. The method, then: as §1, §3, §4

For `CCC(CCC(C)C)C(O)/C=C/[C@@H]1[C@H]2CCc3ccc(C(=O)O)c(C)c3O[C@H]2C[C@H]1O` (stereo partly drawn) [Example 10, (1R,2R,3aS,10aR)-1-[(1E,3ξ,4ξ)-4-ethyl-3-hydroxy-7-methyl-1-octen-1-yl]-2-hydroxy-5-methyl-2,3,3a,9,10,10a-hexahydro-1H-benzo[b]cyclopenta[f]oxepine-6-carboxylic acid], at EP1, the EC50 is more than 10 µM. In addition, the ACR mean in the experiment with diabetes model rat (0.01 mg/kg orally once) is 909.3 µg/mg; in the experiment with diabetes model rat (0.1 mg/kg orally once), 751.6 µg/mg. Also, the “Amount of albumin excreted in urine mean” value in experiment [1] (0.1 mg/kg orally once a day for 8 weeks) came to 35.47 mg/24 h. For the same compound, the Serum creatinine mean in experiment [2] (0.1 mg/kg orally once a day for 8 weeks in combination with losartan (30 mg/kg) and canagliflozin (10 mg/kg)) is 0.50 mg/dL.
For `Cc1c(C(=O)O)ccc2c1O[C@H]1C[C@@H](O)[C@H](/C=C/C[C@@](C)(O)CCC(F)=C(F)F)[C@H]1CC2` [Example 11, (1R,2R,3aS,10aR)-2-hydroxy-5-methyl-1-[(1E,45)-7,8,8-trifluoro-4-hydroxy-4-methyl-1,7-octadien-1-yl]-2,3,3a,9,10,10a-hexahydro-1H-benzo[b]cyclopenta[f]oxepine-6-carboxylic acid], the EC50 on EP1 is more than 10 µM. Further, the figures for the ACR mean in the experiment with diabetes model rat (0.01 mg/kg orally once) and with diabetes model rat (0.03 mg/kg orally once) were 1010.5 µg/mg and 575.3 µg/mg, respectively. Also, the “Amount of albumin excreted in urine mean” value in experiment [1] (0.01 mg/kg orally once a day for 8 weeks) stood at 46.01 mg/24 h; in experiment [1] (0.03 mg/kg orally once a day for 8 weeks), 37.94 mg/24 h. Besides, the Serum creatinine mean is 0.46 mg/dL in experiment [2] (0.01 mg/kg orally once a day for 8 weeks in combination with losartan (30 mg/kg) and canagliflozin (10 mg/kg)); 0.47 mg/dL in experiment [2] (0.03 mg/kg orally once a day for 8 weeks in combination with losartan (30 mg/kg) and canagliflozin (10 mg/kg)).
As for “(1R,2R,3aS,10aR)-2,5-difluoro-1-[(1E,3ξ)-3-hydroxy-4-methyl-4-phenyl-1-penten-yl]-2,3,3a,9,10,10a-hexahydro-1H-benzo[b]cyclopenta[f]oxepine-6-carboxylic acid [Example 28]”, the EC50 on EP3 receptor was 0.03 µM; on EP1, more than 10 µM; at EP2, more than 10 µM; at EP4, 1.1 µM; on IP, more than 10 µM.
